Measured values as given in PubChem BioAssay AID179 (DTP/NCI, 2004).
Calls of active or inactive are those of the source.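 The calls were made as follows: active = compounds giving half or more protection of infected cells from virus-caused growth loss, again on retest; inactive = the rest.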 Where a SMILES comes first, the peptide text is derived from it. [ ]: non-standard residue; d: D form. The star is where a group is joined. Tyr(3-Br) = N[C@@H](Cc1ccc(O)c(Br)c1)C(=O)O; Boc = CC(C)(C)OC(=O)*

Test system: CEM cells HIV-1 protection, formazan growth assay
Test: NCI AIDS Antiviral Assay
Conditions: for IC50: measured here: growth of uninfected CEM cells
Method in brief: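 Protection of CEM cells against HIV-1 was scored from cell growth (soluble formazan) across five concentrations, with parallel uninfected cells. Lack of protection may reflect toxicity.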

SMILES	EC50	IC50	outcome
CCC(c1ccccc1)c1noc(CCN(CC)CC)n1 (stereo unspecified)	> 200 µM	33.9 µM	–
CC(C)(C)NC(=O)CCC(CC(=O)NC(C)(C)C)S(=O)(=O)O (stereo unspecified)	> 200 µM	> 200 µM	–
C=C1c2c(C)coc2C(=O)c2c(O)cc(OC)c(C)c21	–	–	inactive
CC1NC(=O)c2c(-c3ccccc3)nn(-c3ccccc3)c2NC1=O (stereo unspecified)	> 200 µM	> 200 µM	–
COc1cc(O)c2cc1Oc1ccc(cc1)CC1c3cc(c(OC)cc3CCN1C)Oc1c(OC)c(OC)c(OC)c3c1[C@H](C2)N(C)CC3 (stereo partly specified)	–	–	inactive
CC(=O)[O-].CC(=O)[O-].O=C(N/N=C/c1cc(Cl)cc(Cl)c1[OH2+])c1ccncc1.[Zn+2]	–	–	inactive
CCCc1cc(=O)oc2c3c(c4c(c12)OC(C)(C)C=C4)O[C@@H](C)[C@H](C)[C@@H]3O[Si](C)(C)C(C)(C)C	> 200 µM	> 200 µM	–
CNc1ncn(-c2c(C)cccc2C)c(=O)n1	> 200 µM	> 200 µM	–
C#CCOC(=O)c1ccccc1OC(C)=O.[C-]#[O+].[C-]#[O+].[C-]#[O+].[C-]#[O+].[C-]#[O+].[C-]#[O+].[Co].[Co]	> 200 µM	9.33 µM	–
COc1ccc(/C=C2\C(=O)N(NC(C)=O)c3ccccc32)cc1	> 309 µM	52.5 µM	–
COC(=O)CCNc1c2ccccc2nc2cccc([N+](=O)[O-])c12	> 0.2 µM	0.0794 µM	–
N#CC(C(=O)CCC(=O)Nc1ccc(Cl)cc1)c1ccc(Cl)cc1 (stereo unspecified)	–	–	inactive
COC(=O)C(=C\Sc1ccccc1)/C=C/C(=O)OC(C)(C)C	–	–	inactive
O=[N+]([O-])c1ccc(CSSCc2ccc([N+](=O)[O-])cc2)cc1	> 200 µM	17.8 µM	–
CCOC(=O)c1c(NC(=O)Nc2ccccc2)c(C(N)=O)c2n1CCCCC2	> 100 µM	> 100 µM	–
S=c1sc2cscc2s1	> 52.5 µM	30.9 µM	–
COC(=O)[C@H](Cc1ccc(O)c(Br)c1)NC(=O)[C@H](Cc1ccc(O)cc1)NC(=O)OC(C)(C)C (Boc-Tyr-[Tyr(3-Br)]-OMe)	> 200 µM	34.7 µM	–
CCSC(CCC(NC(C)=O)(C(=O)O)C(=O)O)SCC	> 200 µM	> 200 µM	–
COC(=O)/C(=N\N)C(C(=O)C(=O)Nc1cc(Cl)ccc1Cl)c1nc2ccc([N+](=O)[O-])cc2[nH]c1=O (stereo unspecified)	> 182 µM	83.2 µM	–
O=C(n1c(=O)n(-c2ccc([N+](=O)[O-])cc2)c(=O)n1C(=O)C(Cl)(Cl)Cl)C(Cl)(Cl)Cl	> 200 µM	> 200 µM	–
Clc1cc2nn(C3CCCCO3)nc2cc1Cl (stereo unspecified)	> 200 µM	> 200 µM	–
O=C(O)C(O)C(O)C(O)C(O)C(O)C(O)CO (stereo unspecified)	–	–	inactive

SMILES	EC50	IC50	outcome
C1CSC2=C(S1)SC1=C(S2)SC(=C2SC3=C(SC4=C(SCCS4)S3)S2)S1	> 200 µM	> 200 µM	–
COc1cccc(/C=C2\CCCCCC2=O)c1	> 200 µM	40.7 µM	–
Cc1ccc(N(C)S(=O)(=O)c2ccc([N+](=O)[O-])cc2)cc1	> 200 µM	178 µM	–
NC(=O)CNC(=O)c1ccccc1SC(=O)OCCBr	7.08 µM	> 200 µM	–
CCOC(=O)/C=C/c1ccccn1	> 1410 µM	646 µM	–
COc1ccc(C2CC(C)=Nc3c([nH]c(=S)[nH]c3=O)N2)cc1 (stereo unspecified)	> 16.6 µM	> 16.6 µM	–
CN1C(=O)C(O)C[C@@H]1c1ccccc1 (stereo partly specified)	–	–	inactive
CC[C@@H](CCCCC1CC[C@H]2CC(=O)C[C@@H]12)OC (stereo partly specified)	> 200 µM	102 µM	–
CC(=O)OC1SCC2OC(=O)OC21 (stereo unspecified)	> 1230 µM	> 1230 µM	–
O=C(Cc1ccccc1)NC(=O)Nc1ccccc1	> 20.4 µM	> 20.4 µM	–
COC(=O)C1=CO[C@@H](C)[C@H]2CN3CC[C@]4(C(=O)Nc5ccccc54)[C@@H]3C[C@H]12	> 200 µM	> 200 µM	–
C=CCCON(C(=O)OC(C)(C)C)C(C)(C)C	> 200 µM	> 200 µM	–
N#CC(C#N)=Cc1ccc(Oc2ccccc2)cc1	> 21.4 µM	16.6 µM	–
Cc1cn(Cc2ccccc2CCO)c(=S)[nH]c1=O	> 912 µM	> 912 µM	–
CCCCCCCCCCCCC(=O)NC1=C(O)c2ccccc2C(=O)C1=O	–	–	inactive
COc1cc(OC)c(/C=C/c2ccc3ccccc3[n+]2[O-])c(OC)c1	> 56.2 µM	> 56.2 µM	–
O=C(O)CCc1ccc(NC(=O)CN(CCO)CCO)cc1	> 200 µM	> 200 µM	–
COC(=O)C1CC(C=[N+](C)C)=C(SC)N1C(=O)OCc1ccccc1 (stereo unspecified)	> 200 µM	191 µM	–
O=C(CSS(=O)(=O)O)c1ccccc1	> 200 µM	> 200 µM	–
CC(=O)N1CCCN(C)/C1=N/[N+](=O)[O-]	> 200 µM	> 200 µM	–
c1csc(-c2cc(-c3ccsc3)cs2)c1	> 200 µM	> 200 µM	–
Clc1cc(OCC23CC4CC(CC(C4)C2)C3)nc(OCC23CC4CC(CC(C4)C2)C3)n1	> 100 µM	> 100 µM	–

SMILES	EC50	IC50	outcome
NNc1nncc2n[nH]nc12	> 200 µM	> 200 µM	–
Cc1cc(/C(C#N)=C/c2ccc(N(C)C)cc2)cc(C)c1[N+](=O)[O-]	> 2 µM	0.105 µM	–
CCCCCCCCCCc1c2nc(c(CCCCCCCCCC)c3ccc([nH]3)c(CCCCCCCCCC)c3ccc([nH]3)c(CCCCCCCCCC)c3nc1C=C3)C=C2	> 100 µM	> 100 µM	–
CC(C)CC(NC(=O)C(O)C(N)Cc1ccccc1)C(=O)O (stereo unspecified)	> 17 µM	> 17 µM	–
C/C=N/NC1=Nc2ccc(Cl)cc2C(c2ccccc2)=NN1C	> 200 µM	33.9 µM	–
CCOC(=O)C(=O)/C=C(\C)Nc1c(NC2OCC(OC(C)=O)C(OC(C)=O)C2OC(C)=O)nc(SC)[nH]c1=O (stereo unspecified)	> 87.1 µM	> 87.1 µM	–
COC(=O)C(Nc1ccc(OC)cc1)c1ccccc1 (stereo unspecified)	> 200 µM	148 µM	–
O=c1c(-c2ccccc2)c2oc(c1-c1ccccc1)CS(=O)(=O)CCC2	> 97.7 µM	18.6 µM	–
Cc1c(Cl)cccc1NC(=O)/C(Cl)=C(\Cl)C(=O)O	–	–	inactive
C=CCC(C(=N)C(C#N)(CC=C)C1=CCCCC1)C1=CCCCC1 (stereo unspecified)	> 97.7 µM	81.3 µM	–
CCC(C)C(C1=C(O)c2ccccc2C(=O)C1=O)C1=C(O)c2ccccc2C(=O)C1=O (stereo unspecified)	> 200 µM	87.1 µM	–
O=c1[nH]c2cc([N+](=O)[O-])ccc2nc1/C=C(\O)c1ccc([N+](=O)[O-])cc1	> 200 µM	186 µM	–
Cc1cc2c(cc1C)NC(=O)C(C)CN2 (stereo unspecified)	> 200 µM	> 200 µM	–
COc1ccc(C2Nc3cc(Cl)ccc3NC3=C2C(=O)CC(C)(C)C3)cc1 (stereo unspecified)	> 200 µM	83.2 µM	–
CC1(C)CC(=O)c2c(-c3ccc(Cl)cc3)c(C#N)c(=S)n(C3OC(CO)C(O)C(O)C3O)c2C1 (stereo unspecified)	> 200 µM	31.6 µM	–
OCCO[P+]1(OCCO)n2c3ccc2C(c2ccccc2)=C2C=CC(=N2)C(c2ccccc2)=c2ccc(n21)=C(c1ccccc1)C1=NC(=C3c2ccccc2)C=C1	> 0.2 µM	0.0813 µM	–
COc1cc(C2C(Cl)C(=O)N2NC(=O)c2ccccc2O)ccc1O (stereo unspecified)	> 27.5 µM	> 27.5 µM	–
O=C1c2ccccc2N2OC3(N4CCOCC4)CCCC3C12c1ccccc1 (stereo unspecified)	> 5.37 µM	> 5.37 µM	–
COc1ccc2c(O)c(Cc3ccc(OC)c(OC)c3)c(=O)oc2c1	–	–	inactive
CCCC(=O)N[C@H]1C2C3CC4C5CC(C42)C1(C)C53 (stereo partly specified)	> 275 µM	> 275 µM	–
CC(=O)Nc1ccc(-c2nnc(SCC(=O)Nc3ccccc3[N+](=O)[O-])o2)cc1	> 24 µM	> 24 µM	–
Cc1cc(=O)c(C#N)c(C)s1	> 200 µM	> 200 µM	–

SMILES	EC50	IC50	outcome
CC(=O)c1cccc(NC(=O)C(=O)Nn2c(N)nnc2N)c1	> 158 µM	> 158 µM	–
c1ccc(Cn2c(-c3ccc(-c4ccccc4)cc3)cc3ccccc32)cc1	> 100 µM	> 100 µM	–
N=c1oc2ccc(Cl)cc2cc1C(=O)Nc1ccccc1	> 151 µM	21.9 µM	–
CC(=O)c1cccc(N2COC(C)(C)c3nc4ccccc4n3C2)c1	> 200 µM	107 µM	–
O=C1OCC/C1=C\c1ccc2c(c1)OCO2	> 45.7 µM	> 45.7 µM	–
Cc1cn([C@H]2C[C@@H]3[C@@H](COC(CCc4ccccc4)N3O)O2)c(=O)[nH]c1=O (stereo partly specified)	95.5 µM	151 µM	–
O=C1CC23CCCC2(C1)CC(=O)C3 (stereo unspecified)	> 126 µM	> 126 µM	–
CC(=O)n1c2ccc(Br)cc2c2nc3ccccc3nc21	> 200 µM	> 200 µM	–
Cc1nc(C(N)=S)sc1C(=O)CC(=O)C(=O)Nc1cccc(Cl)c1C	> 170 µM	> 170 µM	–
COP(=O)(CC(=O)C1OC(C)(C)OC1C(O)COCc1ccccc1)OC (stereo unspecified)	> 324 µM	> 324 µM	–
O=S(=O)(C1CCCCC1)N1N=NC2CCCCC21 (stereo unspecified)	> 200 µM	> 200 µM	–
CC1=NN(c2ccccc2)C(=O)C1N=Nc1ccc(S(N)(=O)=O)cc1 (stereo unspecified)	–	–	inactive
COc1ccc(-n2cnc3c2NC(C)(C)N=C3C(N)=O)c(OC)c1	> 200 µM	> 200 µM	–
CCN(CC)c1ccc(/C=C2/C[N+](C)(C)C/C(=C/c3ccc(N(CC)CC)cc3)C2=O)cc1	> 6.61 µM	6.46 µM	–
Cc1noc(NC2=CC(=O)C(=O)c3ccccc32)c1C	> 200 µM	3.98 µM	–
O=C(O)c1cc(-c2c3ccc(=O)cc-3oc3cc(O)ccc23)c(C(=O)O)cc1-c1c2ccc(=O)cc-2oc2cc(O)ccc12	> 200 µM	> 200 µM	–
CC(=O)[O-].O=S(=O)(Nc1ncccn1)c1ccc(N=Cc2ccccc2O)cc1.O=S(=O)(Nc1ncccn1)c1ccc(N=Cc2ccccc2O)cc1.[Cu+2]	> 200 µM	38 µM	–
CN1CCCC1c1cccnc1 (stereo unspecified)	77.6 µM	> 200 µM	–
CCCCCCCCCCCCc1ccsc1-c1ccc(-c2ccc(-c3sc(-c4cc(CCCCCCCCCCCC)c(-c5ccc(-c6ccc(-c7sccc7CCCCCCCCCCCC)s6)s5)s4)cc3CCCCCCCCCCCC)s2)s1	> 50.1 µM	> 50.1 µM	–
CC1(O)/C(=N/O)CC2CC1C2(C)C (stereo unspecified)	> 1350 µM	> 1350 µM	–
